# Measurements published in paper PMC7465469, “Inhibition of the Lysophosphatidylinositol Transporter ABCC1 Reduces Prostate Cancer Cell Growth and Sensitizes to Chemotherapy” (Cancers, 2020).
# Target: T1, ABCC1 (Homo sapiens, UniProt P33527)
# T1 construct: wild-type ABCC1 (pcDNA3-ABCC1) transiently expressed in HEK293T cells
# Assay: Calcein-AM efflux, two-colour flow cytometry in ABCC1-transfected HEK293T cells
# Type: cell-based
# T1 sequence (P33527 whole entry): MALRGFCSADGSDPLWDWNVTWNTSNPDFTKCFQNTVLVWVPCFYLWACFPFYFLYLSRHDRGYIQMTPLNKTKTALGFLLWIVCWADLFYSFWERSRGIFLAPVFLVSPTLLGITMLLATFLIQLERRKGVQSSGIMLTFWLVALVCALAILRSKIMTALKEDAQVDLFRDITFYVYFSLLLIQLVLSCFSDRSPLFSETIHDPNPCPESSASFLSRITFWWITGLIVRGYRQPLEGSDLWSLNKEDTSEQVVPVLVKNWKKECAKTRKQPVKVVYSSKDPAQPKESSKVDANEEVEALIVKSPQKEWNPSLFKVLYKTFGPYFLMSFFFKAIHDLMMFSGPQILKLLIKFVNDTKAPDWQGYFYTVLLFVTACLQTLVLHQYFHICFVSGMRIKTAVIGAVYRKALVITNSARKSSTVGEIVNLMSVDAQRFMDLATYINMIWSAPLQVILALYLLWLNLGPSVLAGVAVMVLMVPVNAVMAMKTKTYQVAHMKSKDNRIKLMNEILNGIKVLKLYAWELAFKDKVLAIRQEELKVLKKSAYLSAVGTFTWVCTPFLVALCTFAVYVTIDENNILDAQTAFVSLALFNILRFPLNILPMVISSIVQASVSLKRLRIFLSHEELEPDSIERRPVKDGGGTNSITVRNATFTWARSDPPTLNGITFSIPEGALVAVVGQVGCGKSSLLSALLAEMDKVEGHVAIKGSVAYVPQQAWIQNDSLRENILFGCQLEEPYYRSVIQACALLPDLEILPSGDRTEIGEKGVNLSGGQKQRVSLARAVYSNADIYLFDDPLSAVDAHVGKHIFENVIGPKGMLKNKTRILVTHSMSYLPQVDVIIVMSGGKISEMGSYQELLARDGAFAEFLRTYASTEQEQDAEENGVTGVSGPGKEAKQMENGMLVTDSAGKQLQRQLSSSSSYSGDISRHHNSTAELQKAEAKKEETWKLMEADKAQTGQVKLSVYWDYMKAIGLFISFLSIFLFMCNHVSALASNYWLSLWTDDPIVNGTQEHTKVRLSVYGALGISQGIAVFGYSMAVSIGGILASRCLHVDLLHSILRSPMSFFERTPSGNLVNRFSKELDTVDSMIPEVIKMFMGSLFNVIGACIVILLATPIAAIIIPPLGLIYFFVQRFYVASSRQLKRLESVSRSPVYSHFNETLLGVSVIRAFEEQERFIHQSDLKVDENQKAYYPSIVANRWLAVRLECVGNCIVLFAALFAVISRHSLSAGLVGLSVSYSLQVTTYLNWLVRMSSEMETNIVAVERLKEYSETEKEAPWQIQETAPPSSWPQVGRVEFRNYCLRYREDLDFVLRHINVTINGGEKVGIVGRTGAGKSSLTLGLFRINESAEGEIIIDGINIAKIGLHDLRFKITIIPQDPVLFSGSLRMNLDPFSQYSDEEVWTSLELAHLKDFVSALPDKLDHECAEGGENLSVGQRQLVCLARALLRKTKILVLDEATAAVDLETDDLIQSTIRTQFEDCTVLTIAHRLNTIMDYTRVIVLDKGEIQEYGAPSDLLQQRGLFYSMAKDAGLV
structure (smiles),measurement,value
CC1=C(CC(=O)O)c2cc(F)ccc2/C1=C\c1ccc([S+](C)[O-])cc1 (stereo not shown) [Sulindac],IC50,106 µM
